Results taken from US9765105B2, “Macrolide compound” (Pulike Biological Engineering, Inc., priority 2013, dated 2017).

Experiments:
[1] = tested on: Staphylococcus aureus CVCC26003; assay: in vitro susceptibility, MIC by mini broth dilution; assay type: cell-based; settings: strain CVCC26003
Summary of the method: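 MICs were determined by mini broth dilution under NCCLS standards in CAMHB, using revived S. aureus CVCC26003 subcultured 20 h at 35° C. Compounds were two-fold serially diluted in DMSO across 11 wells, with duplicate rows. Bacterial suspension was diluted 1:200 in medium before inoculation.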

[2] = tested on: Actinobacillus pleuropneumoniae CVCC262; assay: as above; assay type: cell-based; settings: strain CVCC262
Summary of the method: (§1)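 Bacteria were revived from −20° C stocks and streaked twice on solid medium, each time grown 20 h at 35° C. Compounds were double-diluted in DMSO across 11 wells and tested in two parallel rows. The bacterial suspension was diluted 1:200 with liquid medium before MIC determination by mini broth dilution.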

Haemophilus parasuis = assay: as above; assay type: cell-based
Summary of the method: as §1

[3] = tested on: Pasteurella multocida CVCC399; assay: as above; assay type: cell-based; settings: strain CVCC399
Summary of the method: as §1

[4] = tested on: Streptococcus equines CVCC556; assay: as above; assay type: cell-based; settings: strain CVCC556
Summary of the method: as §1

[5] = tested on: Streptococcus pneumoniae CMCC 31203; assay: in vivo antibacterial test, survival of infected mice; set-up: species or system BALB/c mice; settings: mice infected i.p. with Streptococcus pneumoniae; 5 mg per kg subcutaneous for 3 consecutive days; observed until the seventh day
[6] = acute oral toxicity test, LD50 by improved karber method; settings: for LD50 at 7 days: both, Konmin, mouse, in vivo, po

Structure (SMILES) | Animal survival rate (surviving/total animals) [5] | LD50 at 7 days [6] | also measured
CCCNC[C@]1(O)[C@H](C)O[C@@H](O[C@H]2[C@H](C)[C@@H](O[C@@H]3O[C@H](C)C[C@H](N(C)C)[C@H]3O)[C@](C)(O)C[C@@H](C)N(CCC)C[C@H](C)[C@@H](O)[C@](C)(O)[C@@H](CC)OC(=O)[C@@H]2C)C[C@@]1(C)OC [syzx-101, (2R,3S,4R,5S,8R,10R,11R,12S,13S,14R)-13-[(2,6-dideoxy-3-C-methyl-3-O-methyl-4-C-[(n-propylamino)-methyl]-α-L-ribopyranosyl)oxy]-2-ethyl-3,4,10-trihydroxy-3,5,8,10,12,14-hexamethyl-7-propyl-11-[[3,4,6-trideoxy-3-(dimethylamino)-β-D-xylo-hexopyranosy]oxy]-1-oxa-7-azacyclopentadecan-15-one] | 9/10 | – | MIC values, Staphylococcus aureus CVCC26003 [1]: 0.125 ug/mi; MIC values, Actinobacillus pleuropneumoniae CVCC262 [2]: 0.125 ug/mi; MIC values, Haemophilus parasuis (Haemophilus parasuis): 0.125 ug/mi; MIC values, Pasteurella multocida CVCC399 [3]: 0.125 ug/mi; MIC values, Streptococcus equines CVCC556 [4]: 0.125 ug/mi; Animal survival rate [5]: 90%; LD50 ([6]; per os, gavaged once, in 0.2% sodium carboxymethylcellulose, observed 7 days): 3760.6 mg/kg
CCNC[C@]1(O)[C@H](C)OC(O[C@@H]2[C@@H](C)[C@@H](O[C@@H]3O[C@H](C)C[C@H](N(C)C)[C@H]3O)[C@](C)(O)C[C@@H](C)NC[C@@H](C)[C@H](O)[C@](C)(O)[C@H](CC)OC(=O)[C@@H]2C)C[C@@]1(C)OC (stereo partly drawn) [syzx-10, (2R,3S,4R,5S,8R,10R,11R,12S,13S,14R)-13-[(2,6-dideoxy-3-C-methyl-3-O-methyl-4-C-[(ethylamino)methyl]-α-L-ribopyranosyl)oxy]-2-ethyl-3,4,10-trihydroxy-3,5,8,10,12,14-hexamethyl-11-[[3,4,6-trideoxy-3-(dimethylamino)-β-D-xylo-hexopyranosy]oxy]-1-oxa-7-azacyclopentadecan-15-one] | 9/10 | 2810 mg/kg | –
CC[C@@H]1OC(=O)[C@H](C)[C@H](OC2C[C@@](C)(OC)[C@](O)(CNCC(C)C)[C@H](C)O2)[C@@H](C)[C@@H](O[C@@H]2O[C@H](C)C[C@H](N(C)C)[C@H]2O)[C@](C)(O)C[C@@H](C)NC[C@@H](C)[C@H](O)[C@]1(C)O (stereo partly drawn) [syzx-12, (2R,3S,4R,5S,8R,10R,11R,12S,13S,14R)-13-[(2,6-dideoxy-3-C-methyl-3-O-methyl-4-C-[(isobutylamino)methyl]-α-L-ribopyranosyl)oxy]-2-ethyl-3,4,10-trihydroxy-3,5,8,10,12,14-hexamethyl-11-[[3,4,6-trideoxy-3-(dimethylamino)-β-D-xylo-hexopyranosy]oxy]-1-oxa-7-azacyclopentadecan-15-one] | 8/10 | 4310 mg/kg | –
CC[C@@H]1OC(=O)[C@H](C)[C@H](OC2C[C@@](C)(OC)[C@](O)(CNC(C)(C)C)[C@H](C)O2)[C@@H](C)[C@@H](O[C@@H]2O[C@H](C)C[C@H](N(C)C)[C@H]2O)[C@](C)(O)C[C@@H](C)NC[C@@H](C)[C@H](O)[C@]1(C)O (stereo partly drawn) [syzx-14] | 8/10 | 2590 mg/kg | –
CCCN1C[C@@H](C)[C@@H](O)[C@](C)(O)[C@H](CC)OC(=O)[C@H](C)[C@H](OC2C[C@@](C)(OC)[C@](O)(CN(C)CC)[C@H](C)O2)[C@H](C)[C@@H](O[C@@H]2O[C@H](C)C[C@H](N(C)C)[C@H]2O)[C@](C)(O)C[C@H]1C (stereo partly drawn) [syzx-213] | 9/10 | 2790 mg/kg | –
CC[C@@H]1OC(=O)[C@H](C)[C@H](OC2C[C@@](C)(OC)[C@](O)(CNC(C)C)[C@H](C)O2)[C@@H](C)[C@@H](O[C@@H]2O[C@H](C)C[C@H](N(C)C)[C@H]2O)[C@](C)(O)C[C@@H](C)NC[C@@H](C)[C@H](O)[C@]1(C)O (stereo partly drawn) [syzx-11, (2R,3S,4R,5S,8R,10R,11R,12S,13S,14R)-13-[(2,6-dideoxy-3-C-methyl-3-O-methyl-4-C-[(isopropylamino)methyl]-α-L-ribopyranosyl)oxy]-2-ethyl-3,4,10-trihydroxy-3,5,8,10,12,14-hexamethyl-11-[[3,4,6-trideoxy-3-(dimethylamino)-β-D-xylo-hexopyranosy]oxy]-1-oxa-7-azacyclopentadecan-15-one] | 8/10 | 4200 mg/kg | –
CC[C@@H]1OC(=O)[C@H](C)[C@H](OC2C[C@@](C)(OC)[C@](O)(CNCC3CC3)[C@H](C)O2)[C@@H](C)[C@@H](O[C@@H]2O[C@H](C)C[C@H](N(C)C)[C@H]2O)[C@](C)(O)C[C@@H](C)NC[C@@H](C)[C@H](O)[C@]1(C)O (stereo partly drawn) [syzx-17, (2R,3S,4R,5S,8R,10R,11R,12S,13S,14R)-13-[(2,6-dideoxy-3-C-methyl-3-O-methyl-4-C-[(cyclopropylmethylamino)methyl]-α-L-ribopyranosyl)oxy]-2-ethyl-3,4,10-trihydroxy-3,5,8,10,12,14-hexamethyl-11-[[3,4,6-trideoxy-3-(dimethylamino)-β-D-xylo-hexopyranosy]oxy]-1-oxa-7-azacyclopentadecan-15-one] | 8/10 | 2670 mg/kg | –
CC[C@@H]1OC(=O)[C@H](C)[C@H](OC2C[C@@](C)(OC)[C@](O)(CNCCOC)[C@H](C)O2)[C@@H](C)[C@@H](O[C@@H]2O[C@H](C)C[C@H](N(C)C)[C@H]2O)[C@](C)(O)C[C@@H](C)NC[C@@H](C)[C@H](O)[C@]1(C)O (stereo partly drawn) [syzx-58] | 8/10 | 3550 mg/kg | –
CCCCNC[C@]1(O)[C@H](C)OC(O[C@@H]2[C@@H](C)[C@@H](O[C@@H]3O[C@H](C)C[C@H](N(C)C)[C@H]3O)[C@](C)(O)C[C@@H](C)NC[C@@H](C)[C@H](O)[C@](C)(O)[C@H](CC)OC(=O)[C@@H]2C)C[C@@]1(C)OC (stereo partly drawn) [syzx-2, (2R,3S,4R,5S,8R,10R,11R,12S,13S,14R)-13-[(2,6-dideoxy-3-C-methyl-3-O-methyl-4-C-[(butylamino)methyl]-α-L-ribopyranosyl)oxy]-2-ethyl-3,4,10-trihydroxy-3,5,8,10,12,14-hexamethyl-11-[[3,4,6-trideoxy-3-(dimethylamino)-β-D-xylo-hexopyranosy]oxy]-1-oxa-7-azacyclopentadecan-15-one] | 8/10 | 2550 mg/kg | –
